The source of these data is PMC9865752, “Design and Synthesis of (Z)-2-(Benzylamino)-5-benzylidenethiazol-4(5H)-one Derivatives as Tyrosinase Inhibitors and Their Anti-Melanogenic and Antioxidant Effects” (Molecules, 2023).

For assay [1], the system named is B16F10 cells. Description: Measurement of extracellular and intracellular melanin levels. The class given is cell-based, murine. The note with it: α-MSH plus IBMX stimulated B16F10 cells, 72 h. On the procedure: To investigate the effects of derivative 8 on extracellular and intracellular melanin levels in B16F10 cells, the cells were treated with various concentrations (5, 10, and 20 µM) of derivative 8 for 1 h, in addition to co-treatment with α-MSH (0.5 µM) and 3-isobutyl-1-methylxanthine (IBMX; 200 µM) to enhance melanin biosynthesis in B16F10 cells. After 72 h of incubation, the effects of 8 on extracellular and intracellular melanin levels were determined by measuring the melanin absorbance in the culture media and cell lysates, respectively, at 405 nm using a microplate reader.
The effect of 8 on melanin production was measured using a standard melanin content assay, with minor modifications. Briefly, B16F10 cells were seeded at a density of 1 × 10^5 cells per well and allowed to adhere to the well bottoms for 24 h under the conditions used for cell cultures. […] After incubation for 72 h at 37 °C in a 5% CO2 atmosphere, melanin levels were determined. To measure the extracellular melanin levels, the absorbance of each well of the culture medium was measured at 405 nm. […] Cultured cells were washed twice with PBS, and the pellets obtained were dissolved using 1 N NaOH solution (200 µL, 10% DMSO) at 60 °C for 1 h. Cell lysates were transferred to the wells of a 96-well plate, and the optical density of melanin dissolved in each well was measured at 405 nm in aqueous DMSO solution using a microplate reader (VersaMax; Molecular Devices).

Assay [2] deals with tyrosinase. The experiment in a line: Western blotting of tyrosinase protein expression. The class given is cell-based, murine. The protocol: We investigated whether, in addition to the direct inhibition of tyrosinase, another inhibitory mechanism of melanogenesis by derivative 8 may be related to the expression of proteins involved in melanogenesis. For the Western blotting experiment, B16F10 cells were treated with α-MSH (1 µM) plus IBMX (200 µM), leading to a 1.7- and 4.9-fold increase in expression levels of melanogenesis-associated proteins tyrosinase and MITF, compared to those in the untreated control (100%) (Figure 13).
B16F10 cells were seeded in a 60 mm dish at a density of 5 × 10^5 cells/mL for 24 h, washed with cold PBS, and harvested. Cytosolic and nuclear fractions of cell lysates were extracted using lysis buffer, as described previously. Protein concentrations in the cell lysates were estimated using the BCA protein assay (Pierce, Rockford, IL, USA). […] The membranes were washed and protein bands detected using the SuperSignal West Pico Chemiluminescence assay kit (Advansta, San Jose, CA, USA) and the Davinch–Chem program (Davinch-K, Seoul, Republic of Korea). Immunoblotting data were quantified using CS Analyzer 3.2 (Densitograph) image analysis software (http://www.attokorea.co.kr, accessed on 21 November 2022).
In general terms: A western blot detects proteins with antibodies after separation by electrophoresis.

The structures appear in SMILES notation.

In the case of `O=C1N=C(NCc2ccccc2)S/C1=C\c1ccc(O)cc1O` [Compound 8, (Z)-2-(benzylamino)-5-(2,4-dihydroxybenzylidene)thiazol-4(5H)-one], the “extracellular melanin levels compared to untreated control” value in assay [1] (5 µM) stood at 1.22 fold; in assay [1] (10 µM), 1.03 fold; in assay [1] (20 µM), 1.00 fold. The “intracellular melanin levels (in words)” value in assay [1] (5 µM) is recorded as “more potent inhibitory activity on melanin production than kojic acid at 20 µM”; in assay [1] (20 µM) it was “lower than those in the untreated control”. Also, the “relative expression level of tyrosinase protein” value was “lowered the protein expression to the same or lower control levels” in assay [2] (10 µM, α-MSH plus IBMX treated B16F10 cells); “significantly reduced the relative expression levels of tyrosinase and MITF in a dose-dependent manner” in assay [2] (5, 10 and 20 µM, α-MSH (1 µM) plus IBMX (200 µM) treated B16F10 cells).
